This is an account of results in patent US20140179664A1, “Heterocyclyl Pyrimidine Analogues As JAK Inhibitors” (Cellzome Limited, priority 2011, published 2014).

SMILES strings stand for the structures.

The test deals with T1, JAK3 (Homo sapiens, UniProt P52333).
T1 construct: endogenous in cells; host or cells: Molt4 (ATCC CRL-1582) and Ramos (ATCC CRL-1596), mixed lysate 1:2
T1 sequence (P52333 1-1124): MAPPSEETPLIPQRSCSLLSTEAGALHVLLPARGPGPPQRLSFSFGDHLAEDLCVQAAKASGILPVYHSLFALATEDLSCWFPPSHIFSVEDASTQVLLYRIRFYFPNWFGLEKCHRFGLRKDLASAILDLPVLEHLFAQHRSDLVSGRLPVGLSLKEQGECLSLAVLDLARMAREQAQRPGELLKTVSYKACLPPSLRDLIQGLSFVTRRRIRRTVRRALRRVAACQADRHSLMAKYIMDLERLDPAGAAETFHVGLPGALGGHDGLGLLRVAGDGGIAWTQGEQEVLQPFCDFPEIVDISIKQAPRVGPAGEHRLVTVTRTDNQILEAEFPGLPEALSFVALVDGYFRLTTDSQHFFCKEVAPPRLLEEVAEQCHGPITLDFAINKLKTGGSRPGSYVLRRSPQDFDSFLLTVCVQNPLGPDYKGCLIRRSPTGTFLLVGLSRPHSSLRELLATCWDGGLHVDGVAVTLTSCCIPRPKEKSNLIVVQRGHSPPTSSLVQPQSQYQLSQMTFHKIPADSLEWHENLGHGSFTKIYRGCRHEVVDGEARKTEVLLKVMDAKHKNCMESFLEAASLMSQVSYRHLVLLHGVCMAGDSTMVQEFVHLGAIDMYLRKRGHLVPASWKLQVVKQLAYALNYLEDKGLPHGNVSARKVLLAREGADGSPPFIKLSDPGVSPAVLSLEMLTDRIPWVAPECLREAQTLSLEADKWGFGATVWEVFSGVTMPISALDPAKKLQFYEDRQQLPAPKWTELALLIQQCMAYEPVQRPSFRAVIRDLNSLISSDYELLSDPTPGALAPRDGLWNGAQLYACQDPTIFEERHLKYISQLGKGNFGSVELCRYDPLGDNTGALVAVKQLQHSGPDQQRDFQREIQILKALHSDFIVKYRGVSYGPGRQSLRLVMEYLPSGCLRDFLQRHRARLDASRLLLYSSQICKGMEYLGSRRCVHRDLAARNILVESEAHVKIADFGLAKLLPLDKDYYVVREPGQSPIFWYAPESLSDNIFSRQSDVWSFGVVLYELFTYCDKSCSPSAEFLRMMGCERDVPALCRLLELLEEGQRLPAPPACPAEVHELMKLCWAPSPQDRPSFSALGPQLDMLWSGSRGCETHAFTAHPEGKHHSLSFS
Nature of the test: Kinobeads assay, JAK3. The test is classed as binding. To be noted: mixed Molt4/Ramos lysate, read-out: Inhibition values (IC50) JAK3. Summed up: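 Mixed Molt4/Ramos lysate (1:2, 10 mg/mL protein) was incubated 3 h in the cold with the immobilized aminopyrido-pyrimidine affinity matrix and compound, 9-step 1:3 dilutions. Bead-bound kinases were eluted and quantified by antibody dot blot with infrared detection. IC50s are from dose-response curves.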
Consider `NC(=O)Cn1cc(Nc2ncc(Cl)c(N[C@H](CO)c3ccccc3F)n2)cn1` [Compound 78], for which the 50% inhibitory concentration (IC50) is less than 0.1 µM.
In the case of `CNC(=O)Cn1cc(Nc2ncc(Cl)c(NC(CO)c3cccc(F)c3)n2)cn1` (stereo not shown) [Compound 32] it was less than 0.1 µM.
In the case of `CC(C)(O)Cn1cc(Nc2ncc(Cl)c(NC(CO)c3cccc(F)c3)n2)cn1` (stereo not shown) [Compound 61] it was less than 0.1 µM; in that of `COCCNC(=O)[C@@H](Nc1nc(Nc2cnn(CCO)c2)ncc1Cl)c1ccccc1` [Compound 48], less than 0.1 µM; in that of `COc1cccc([C@@H](CO)Nc2nc(Nc3cnn(C)c3)ncc2Cl)c1` [Compound 82], less than 0.1 µM.
In the case of `OC[C@@H](Nc1nc(Nc2cn[nH]c2)ncc1Cl)c1ccccc1F` [Compound 79] it was less than 0.1 µM.
Take `CC(O)Cn1cc(Nc2ncc(Cl)c(NC(CO)c3cccc(F)c3)n2)cn1` (stereo not shown) [Compound 38]: the IC50 was less than 0.1 µM.
In the case of `CN(C)C(=O)Cn1cc(Nc2ncc(Cl)c(N[C@H](CO)c3ccccc3)n2)cn1` [Compound 30] it was less than 0.1 µM; in that of `CCNC(=O)[C@@H](Nc1nc(Nc2cnn(CCO)c2)ncc1Cl)c1ccccc1` [Compound 27], less than 0.1 µM; in that of `CN(CC#N)C(=O)Cn1cc(Nc2ncc(Cl)c(N[C@H](CO)c3ccccc3)n2)cn1` [Compound 70], less than 0.1 µM.
With `COC(=O)C(Nc1nc(Nc2cnn(C)c2)ncc1Cl)c1ccccc1` (stereo not shown) [Compound 16] the figure was 0.1 to 1 µM; with `NC(=O)Cn1cc(Nc2ncc(Cl)c(N[C@H](CO)c3ccccc3)n2)cn1` [Compound 56], less than 0.1 µM; with `O=C([C@@H](Nc1nc(Nc2cnn(CCO)c2)ncc1Cl)c1ccccc1)N1CCCCC1` [Compound 51], 0.1 to 1 µM.
Regarding `Cn1ccc(Nc2ncc(Cl)c(N[C@H](CO)c3ccccc3)n2)n1` [Compound 11], the IC50 was in the range of 0.1 to 1 µM.
With `CNC(=O)Cn1cc(Nc2ncc(Cl)c(NC(CO)c3ccccc3F)n2)cn1` (stereo not shown) [Compound 33] the figure was less than 0.1 µM; with `COCCNC(=O)[C@@H](Nc1nc(Nc2cnn(C)c2)ncc1Cl)c1ccccc1` [Compound 29], less than 0.1 µM.
With `Cn1cc(Nc2ncc(Cl)c(NC(CO)c3cccc(Br)c3)n2)cn1` (stereo not shown) [Compound 52] the figure was 0.1 to 1 µM; with `CC(C)OC(=O)Cn1cc(Nc2ncc(Cl)c(N[C@H](CO)c3ccccc3)n2)cn1` [Compound 21], less than 0.1 µM; with `CNC(=O)Cn1cc(Nc2ncc(Cl)c(N[C@H](CCO)c3ccccc3)n2)cn1` [Compound 66], 0.1 to 1 µM.
In the case of `OCCn1ccc(Nc2ncc(Cl)c(NC(CO)c3ccccc3F)n2)n1` (stereo not shown) [Compound 50] it was 0.1 to 1 µM; in that of `Cn1cc(Nc2ncc(Cl)c(NC(CO)c3cccc(N4CC5(COC5)C4)c3)n2)cn1` (stereo not shown) [Compound 53], 0.1 to 1 µM.
For the compound `OCCn1cc(Nc2ncc(Cl)c(NC(CO)c3ccccc3F)n2)cn1` (stereo not shown) [Compound 36], the IC50 was less than 0.1 µM.
In the case of `O=C(c1cc(Nc2ncc(Cl)c(N[C@H](CO)c3ccccc3)n2)c[nH]1)N1CCOCC1` [Compound 13] it was less than 0.1 µM; in that of `Cn1cc(Nc2ncc(Cl)c(NC(CO)c3cccc(-c4cnn(C)c4)c3)n2)cn1` (stereo not shown) [Compound 69], 0.1 to 1 µM; in that of `Cn1cc(Nc2ncc(F)c(NC(CO)c3ccccc3)n2)cn1` (stereo not shown) [Compound 2], 0.1 to 1 µM.
For `OCCn1cc(Nc2ncc(Cl)c(N[C@H](CO)c3ccccc3F)n2)cn1` [Compound 77], the IC50 was less than 0.1 µM.
In the case of `OCCn1cc(Nc2ncc(Cl)c(N[C@H](CO)c3ccccn3)n2)cn1` [Compound 80] it was less than 0.1 µM; in that of `CN(C)C(=O)[C@@H](Nc1nc(Nc2cnn(C)c2)ncc1Cl)c1ccccc1` [Compound 25], 0.1 to 1 µM.
In the case of `CC(C)(O)Cn1cc(Nc2ncc(Cl)c(NC(CO)c3c(F)cccc3F)n2)cn1` (stereo not shown) [Compound 62] it was less than 0.1 µM; in that of `O=C(NC1CCCC1)[C@@H](Nc1nc(Nc2cnn(CCO)c2)ncc1Cl)c1ccccc1` [Compound 60], 0.1 to 1 µM; in that of `OCCn1cc(Nc2ncc(Cl)c(NC(CO)c3cccc(F)c3)n2)cn1` (stereo not shown) [Compound 39], less than 0.1 µM.
With `OCCn1cc(Nc2ncc(Cl)c(N[C@@H](CO)c3ccccc3)n2)cn1` [Compound 63], the half-inhibitory concentration (IC50) fell in the range of 1 to 10 µM.
With `COc1cccc([C@@H](CO)Nc2nc(Nc3cnn(CCO)c3)ncc2Cl)c1` [Compound 83] the figure was less than 0.1 µM.
Regarding `Cc1cnc(Nc2cnn(CC(F)F)c2)nc1NC(CO)c1c(F)cccc1F` (stereo not shown) [Compound 168], the IC50 is 0.1 to 1 µM.
In the case of `Cn1cc(Nc2ncc(Cl)c(NC(CO)c3ccccc3)n2)cn1` (stereo not shown) [Compound 1] it was less than 0.1 µM.
With `O=C(NCCO)[C@@H](Nc1nc(Nc2cnn(CCO)c2)ncc1Cl)c1ccccc1` [Compound 47] the figure was less than 0.1 µM; with `CNC(=O)Cn1cc(Nc2ncc(Cl)c(N[C@H](CO)c3ccccc3)n2)cn1` [Compound 23, (S)-2-(4-((5-chloro-4-((2-hydroxy-1-phenylethyl)amino)pyrimidin-2-yl)amino)-1H-pyrazol-1-yl)-N-methylacetamide], less than 0.1 µM; with `Cc1cnc(Nc2cnn(CCO)c2)nc1NC(CO)c1ccccc1` (stereo not shown) [Compound 12], 0.1 to 1 µM.
Take `Cn1cc(Nc2ncc(Cl)c(NC(C(=O)O)c3ccccc3)n2)cn1` (stereo not shown) [Compound 18]: the IC50 is less than 0.1 µM.
With `CC(O)Cn1cc(Nc2ncc(Cl)c(NC(CO)c3c(F)cccc3F)n2)cn1` (stereo not shown) [Compound 42] the figure was less than 0.1 µM; with `OCC[C@@H](Nc1nc(Nc2cnn(CCO)c2)ncc1Cl)c1ccccc1` [Compound 65], 0.1 to 1 µM.
In the case of `O=C(O)Cn1cc(Nc2ncc(Cl)c(N[C@H](CO)c3ccccc3)n2)cn1` [Compound 24] it was less than 0.1 µM.
With `CNC(=O)Cn1cc(Nc2ncc(Cl)c(N[C@H](CO)c3cccnc3)n2)cn1` [Compound 170] the figure was less than 0.1 µM.
In the case of `Cn1cc(Nc2ncc(Cl)c(NC(CO)Cc3ccccc3)n2)cn1` (stereo not shown) [Compound 14], the IC50 is 0.1 to 1 µM.
With `CCNC(=O)[C@@H](Nc1nc(Nc2cnn(C)c2)ncc1Cl)c1ccccc1` [Compound 28], the IC50 is less than 0.1 µM.
With `COc1cccc([C@@H](CO)Nc2nc(Nc3cnn(CC(N)=O)c3)ncc2Cl)c1` [Compound 84] the figure was less than 0.1 µM; with `CC(C)NC(=O)Cn1cc(Nc2ncc(Cl)c(N[C@H](CO)c3ccccc3)n2)cn1` [Compound 67], less than 0.1 µM.
In the case of `CNC(=O)[C@@H](Nc1nc(Nc2cnn(C)c2)ncc1Cl)c1ccccc1` [Compound 20] it was 0.1 to 1 µM; in that of `Cn1cc(Nc2ncc(Cl)c(NC(CO)c3ccccc3F)n2)cn1` (stereo not shown) [Compound 37], less than 0.1 µM.
